What is called pIC50 is the negative decadic logarithm of the IC50, by convention in mol/L. Read a high pIC50 as a low IC50.

pIC50: −log10 of the molar value.

The target of test [1] is T1, histamine-1 receptors on Hela-S3 cells (Homo sapiens, UniProt P35367).
T1 construct: histamine-1 receptors on Hela-S3 cells (American Type Culture Collection); host or cells: HeLa-S3 cells (intact cell suspension)
As to the kind of experiment: Inhibition of [^3 H]-Pyrilamine Binding to Histamine-1 Receptors on Hela-S3 Cells. The conditions noted are these: 0.5 h; 1 μM test compound; [^3 H]-pyrilamine remaining specifically bound; 37° C., 30 minutes; read-out: % Specific Binding at 1 μM. Here is the method: Inhibition of [^3 H]-Pyrilamine Binding to Histamine-1 Receptors on Hela-S3 Cells
The inhibition of [^3 H]-pyrilamine binding to histamine-1 receptors on Hela-S3 cells (American Type Culture Collection) was determined by isotopic labelling and filtration techniques. A suspension of the cells in buffer (25 ml, 0.5% Bovine Serum Albumin, 0.1% sodium azide, phosphate buffered saline (PBS)) was centrifuged at 1000 rpm for 5 minutes in a JOUAN CR 422 centrifuge, collected, resuspended in buffer (25 ml) and spun again. The cells were counted using a haemocytometer and resuspended in buffer to provide a final concentration of 4.5×10^6 cells ml^-1. A portion of the Hela-S3 cell suspension (1 ml) was added to each assay tube containing 25 μl of vehicle (50% DMSO/buffer) or 25 μl of test compound solution (dissolved in DMSO and diluted with sufficient PBS to give a final test concentration of 1 μM) and 25 μl of [^3 H]-pyrilamine (supplied by Amersham International and diluted with PBS to 3 nM). The tubes were mixed, incubated at 37° C. for 30 minutes and then spun at 4° C. at 2000 rpm for 2 minutes. The supernatant was removed and the cells resuspended in buffer (repeated ×2). The cells were suspended in 300 μl of a 2:1 solution of 1M sodium hydroxide and 1% sodium dodecyl sulphate. The tubes were left ovemight before the contents were tranferred to a scintillation vial, treated with 10 ml, OPTIPHASE MP scintillation fluid (OPTIPHASE MP is a trade mark) and the radioactivity counted in a scintillation counter. Non-displacable binding (NDB) was determined using Astemizole (5×10^-5 M) in place of test compounds. Defining the counts for total binding from the vehicle control sample as "TB" and the counts for total binding with antogonist as "TBA" the percentage specific binding (% SB) can be determined from the following equation.

Test [2] has as its system PAF-Induced Platelet Aggregation. The experiment in a line: Inhibition of PAF-Induced Platelet Aggregation. The conditions noted are these: Oryctolagus cuniculus; rabbit platelet-rich plasma, PAF 100 ngml^-1. The test is classed as cell-based, rabbit (New Zealand White). Here is the method:
Inhibition of PAF-Induced Platelet Aggregation
Male New Zealand White rabbits (3.0-3.5 kg) were anaesthetised by intravenous administration of sodium pentobarbitone, 18 mg.ml^-1, via a marginal ear vein. The trachea was exposed and connected to a respiratory pump (Harvard UK) to provide artificial ventilation. A carotid artery was exposed and cannulated and the animal was exsanguinated. Whole blood was collected in a syringe containing tri-sodium citrate (3.8% w/v) to a ratio of 1 part citrate:9 parts blood.
Collected blood was centrifuged at 180×g for 15 minutes at room temperature (21° C.) to prepare platelet-rich plasma (PRP). The remaining blood was then centrifuged at 1800×g for 10 minutes at room temperature to obtain platelet poor plasma (PPP).
Platelet count of the PRP was measured using a Technicon H1 blood cell differential analyser (Bayer Diagnostics UK) and adjusted with PPP to obtain a final platelet count of 500,000 platelets per μl of plasma, this being the normal physiological platelet count for rabbits. Corrected PRP was left to equilibrate at room temperature for 30 minutes before use.
Aggregation studies were carried out using a 4-channel aggregometer (PAP-4C, BioData USA) as follows: 400 μl aliquots of PRP were placed in siliconised cuvettes and incubated to 37° C. for 1 to 2 minutes in the heating block of the aggregometer. Baseline (100% aggregation) was set up using PPP (500 μl in a siliconised cuvette). The PRP was placed into a measuring well of the aggregometer, and a stirrer bar was added. The sample was stirred at 1000 rpm. The machine was activated to set the 0% aggregation level. Test compound or vehicle (50 μl) was added to the PRP, where any effects on the baseline was noted. PAF (100 ngml^-1 as 50 μl aliqout) was added to the PRP 3 minutes after test compound or vehicle. Aggregation was measured for a further 4 minutes after PAF addition and the maximum aggregation over the 4 minutes was recorded.
The investigation of different concentrations of test compound was performed in triplicate. Data were expressed as […] of the sample and test compound data were compared to vehicle data to obtain % inhibition of the PAF-induced aggregation from which IC50 values could be determined.
PAF was made up in sterile saline (NaCl 0.9% w/v) containing BSA (0.25% w/v) from an initial stock solution (10 mgml^-1 in EtOH). Test compounds were made up as 1×10^-3 M stock solutions in sterile saline containing molar equivalents of 1N HCl (v/v) or in DMSO.
In the results which follow, a comparison compound A was included. Compound A was prepared as described in EP-A-260613 (G. D. Searle), but is not part of the present invention. As appears from the results of the comparison, compounds of this invention, all of which incorporate a fragment capable of H1 antagonist activity, are observed to show improved PAF antagonist activity over compound A.

T1 sequence (P35367 whole entry): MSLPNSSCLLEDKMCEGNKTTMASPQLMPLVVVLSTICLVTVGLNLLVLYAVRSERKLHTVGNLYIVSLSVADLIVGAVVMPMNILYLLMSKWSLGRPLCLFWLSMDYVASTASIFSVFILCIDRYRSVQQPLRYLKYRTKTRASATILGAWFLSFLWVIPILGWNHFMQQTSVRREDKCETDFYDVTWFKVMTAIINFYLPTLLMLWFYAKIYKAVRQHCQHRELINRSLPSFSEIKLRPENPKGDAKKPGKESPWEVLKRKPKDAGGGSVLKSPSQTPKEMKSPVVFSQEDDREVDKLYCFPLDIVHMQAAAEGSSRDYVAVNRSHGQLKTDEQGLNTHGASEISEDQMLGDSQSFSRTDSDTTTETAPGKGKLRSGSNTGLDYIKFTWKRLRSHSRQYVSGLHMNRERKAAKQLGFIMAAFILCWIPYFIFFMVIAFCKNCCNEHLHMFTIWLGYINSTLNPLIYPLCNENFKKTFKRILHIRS

For `CCC(C)N(C/C=C/c1cccc(/C(=C/CN2CCCC2)c2ccc(C)cc2)n1)C(=O)c1ccc(Cn2c(C)nc3cnccc32)cc1` (racemic) [Example 9, N-(R,S) sec-Butyl-4-(1H-2-methylimidazo[4,5-c]pyridin-1-ylmethyl)-N-(E)-{3-[6-(3-pyrrolidin-1-yl-1-{4-tolyl}-prop-1E-enyl)-pyridin-2-yl]-prop-2-enyl}-benzamide], the activity at 1 µM in test [1] came to 63%. This molecule gave a pIC50 in test [2] of 7.37.

Turning to `CN(C(=O)c1ccc(Cn2cnc3cnccc32)cc1)C1CCCCC1` [Compound A, reference compound], in test [2], the pIC50 was 4.13. On to `Cc1ccc(/C(=C\CN2CCCC2)c2cccc(/C=C/COC(=O)c3ccc(Cn4c(C)nc5cnccc54)cc3)n2)cc1` [Example 1, 4-(1H-2-Methylimidazo[4,5-c]pyridin-1-ylmethyl)benzoic acid 3-[6-(3-pyrrolidin-1-yl-1-{4-tolyl}-prop-1E-enyl)-pyridin-2-yl]prop-2E-enyl ester], for which the activity at 1 µM in test [1] turned out to be 16%. In test [2], this molecule gave a pIC50 of 5.68. As to `Cc1ccc(/C(=C\CN2CCCC2)c2cccc(CCCOC(=O)c3ccc(Cn4c(C)nc5cnccc54)cc3)n2)cc1` [Example 2, 4-(1H-2-Methylimidazo[4,5-c]pyridin-1-ylmethyl)benzoic acid 3-[6-(3-pyrrolidin-1-yl-1-{4-tolyl}-prop-1E-enyl)-pyridin-2-yl]propyl ester], the activity at 1 µM in test [1] amounted to 15%. The same molecule had a pIC50 in test [2] of 6.27.

Consider `Cc1ccc(/C(=C\CN2CCCC2)c2cccc(/C=C/CNC(=O)c3ccc(Cn4c(C)nc5cnccc54)cc3)n2)cc1` [Example 5, 4-(1H-2-Methylimidazo[4,5-c]pyridin-1-ylmethyl)-N-{3-[6-(3-pyrrolidino-1-{4-tolyl}-prop-1E-enyl)-pyridin-2-yl]-prop-2E-enyl}-benzamide], for which, in test [1], the activity at 1 µM amounted to 16%. The pIC50 in test [2] was 5.66.

On to `Cc1ccc(/C(=C\CN2CCCC2)c2cccc(/C=C/CN(CCC(C)C)C(=O)c3ccc(Cn4c(C)nc5cnccc54)cc3)n2)cc1` [Example 6, N-(3-Methyl-but-1-yl)-4-(1H-2-methylimidazo[4,5-c]pyridin-1-ylmethyl)-N-{3-[6-(3-pyrrolidin-1-yl-1-{4-tolyl}-prop-1E-enyl)-pyridin-2-yl]-prop-2E-enyl}-benzamide], for which the activity at 1 µM in test [1] was 29%. In test [2], this molecule had a pIC50 of 6.48. Turning to `Cc1ccc(/C(=C\CN2CCCC2)c2cccc(/C=C/CN(CC(C)C)C(=O)c3ccc(Cn4c(C)nc5cnccc54)cc3)n2)cc1` [Example 7, N-iso-Butyl-4-(1H-2-methylimidazo[4,5-c]pyridin-1-ylmethyl)-N-{3-[6-(3-pyrrolidin-1-yl-1-{4-tolyl}-prop-1E-enyl)-pyridin-2-yl]-prop-2E-enyl}-benzamide], the activity at 1 µM in test [1] turned out to be 40%. For the same molecule, the negative-log IC50 (pIC50) in test [2] is 6.88. Turning to `Cc1ccc(/C(=C\CN2CCCC2)c2cccc(/C=C/CN(C(=O)c3ccc(Cn4c(C)nc5cnccc54)cc3)C3CCCC3)n2)cc1` [Example 8, N-Cyclopentyl-4-(1H-2-methylimidazo[4,5-c]pyridin-1-ylmethyl)-N-{3-[6-(3-pyrrolidin-1-yl-1-{4-tolyl}-prop-1E-enyl)-pyridin-2-yl]-prop-2E-enyl}-benzamide], the activity at 1 µM in test [1] amounted to 34%. The molecule also had a pIC50 in test [2] of 7.04. For the molecule `Cc1ccc(/C(=C\CN2CCCC2)c2cccc(/C=C/CN(C(=O)c3ccc(Cn4c(C)nc5cnccc54)cc3)C(C)(C)C)n2)cc1` [Example 10, N-tert-Butyl-4-(1H-2-methylimidazo[4,5-c]pyridin-1-ylmethyl)-N-{3-[6-(3-pyrrolidin-1-yl-1-{4-tolyl}-prop-1E-enyl)-pyridin-2-yl]-prop-2E-enyl}-benzamide], in test [1], the activity at 1 µM came to 62%. This molecule also gave a negative-log IC50 (pIC50) in test [2] of 5.70. On to `Cc1ccc(/C(=C\CN2CCCC2)c2cccc(/C=C/CN(C(=O)c3ccc(Cn4c(C)nc5cnccc54)cc3)C3CC(C)CC(C)C3)n2)cc1` (centres unmarked) [Example 11, N-3,5-Dimethylcyclohexyl-4-(1H-2-methylimidazo[4,5-c]pyridin-1-ylmethyl)-N-{3-[6-(3-pyrrolidin-1-yl-1-{4-tolyl}-prop-1E-enyl)-pyridin-2-yl]-prop-2E-enyl)-benzamide], for which the activity at 1 µM in test [1] worked out at 60%. Besides, the pIC50 in test [2] is 6.75.

With `Cc1ccc(/C(=C\CN2CCCC2)c2cccc(/C=C/CN(C(=O)c3ccc(Cn4c(C)nc5cnccc54)cc3)C(C)C)n2)cc1` [Example 12, N-iso-Propyl-4-(1H-2-methylimidazo[4,5-c]pyridin-1-ylmethyl)-N-{3-[6-(3-pyrrolidin-1-yl-1-{4-tolyl}-prop-1E-enyl)-pyridin-2-yl]-prop-2E-enyl)-benzamide], the activity at 1 µM in test [1] stood at 64%. Moreover, the pIC50 in test [2] was 7.24. In the same order, the values of `Cc1ccc(/C(=C\CN2CCCC2)c2cccc(CCCN(C(=O)c3ccc(Cn4c(C)nc5cnccc54)cc3)C3CCCCC3)n2)cc1` [Example 17, N-Cyclohexyl-4-(1H-2-methylimidazo[4,5-c]pyridin-1-ylmethyl)-N-{3-[6-(3-pyrrolidin-1-yl-1-{4-tolyl}-prop-1E-enyl)-pyridin-2-yl]-propyl}-benzamide] are 58% and 6.50. As for `CCCCN(C/C=C/c1cccc(/C(=C/CN2CCCC2)c2ccc(C)cc2)n1)C(=O)c1ccc(Cn2c(C)nc3cnccc32)cc1` [Example 22, N-Butyl-4-(1H-2-methylimidazo[4,5-c]pyridin-1-ylmethyl)-N-{3-[6-(3-pyrrolidin-1-yl-1-{4-tolyl}-prop-1E-enyl)-pyridin-2-yl]-prop-2E-enyl}-benzamide], the activity at 1 µM in test [1] was determined as 31%. In addition, the pIC50 in test [2] is 7.21. For `Cc1ccc(/C(=C\CN2CCCC2)c2cccc(/C=C/CN(C)C(=O)c3ccc(-n4c(C)nc5cnccc54)cc3)n2)cc1` [Example 26, N-Methyl-4-(1H-2-methylimidazo[4,5-c]pyridin-1-yl)-N-{3-[6-(3-pyrrolidin-1-yl-1-{4-tolyl}-prop-1E-enyl)-pyridin-2-yl]-prop-2E-enyl}-benzamide], the activity at 1 µM in test [1] amounted to 26%.

The record behind these values is patent US5866588A, “Imidazopyridine derivatives” (British Biotech Pharmaceuticals Ltd., priority 1995, dated 1999).
